The results in this text go back to ChEMBL document CHEMBL1687787, “Emergence and Distribution of Plasmids Bearing the blaOXA-51-like gene with an upstream ISAba1 in carbapenem-resistant Acinetobacter baumannii isolates in Taiwan” (2010).

The term MIC denotes the lowest concentration that inhibits growth of the organism. Read a low MIC as a more susceptible organism.

Converted amounts (≈) assume the structure as drawn. The source made the active and inactive calls. No cut-off for these calls is given here.

Assay [1] concerns Acinetobacter baumannii. As to the kind of experiment: Antimicrobial activity against Acinetobacter baumannii clinical isolate harboring plasmid encoded ISAba1-blaOXA-51-like gene with nuc upstream sequence by agar dilution method in presence of Tazobactam. It counts as functional, organism-based.
Assay [2] concerns Acinetobacter baumannii. Briefly: Antimicrobial activity against Acinetobacter baumannii clinical isolate harboring chromosomally encoded ISAba1-blaOXA-51-like gene with fxsA upstream sequence by agar dilution method in presence of Tazobactam. In kind it is functional, organism-based.
For assay [3], the system named is Acinetobacter baumannii. Briefly: Antimicrobial activity against Acinetobacter baumannii ATCC 15151 by agar dilution method. In kind it is functional. (In general: In agar dilution, organisms are placed on agar that contains the substance at set levels.)
Assay [4] deals with Acinetobacter baumannii. Briefly: Antimicrobial activity against Acinetobacter baumannii ATCC 15151 transformed with shuttle vector carrying beta-lactamase OXA-82 by agar dilution method. In kind it is functional.
For assay [5], the system named is Acinetobacter baumannii. Briefly: Antimicrobial activity against Acinetobacter baumannii F-type isolate transformed with plasmid harboring ISAba1-blaOXA-82 by agar dilution method.
Assay [6] deals with Acinetobacter baumannii. Briefly: Antimicrobial activity against Acinetobacter baumannii F-type isolate by agar dilution method. It counts as functional.
The test system of assay [7] is Acinetobacter baumannii. Briefly: Antimicrobial activity against Acinetobacter baumannii ATCC 15151 transformed with plasmid harboring ISAba1-blaOXA-82 by agar dilution method. In kind it is functional.

In the case of `CCN1CCN(C(=O)N[C@@H](C(=O)N[C@@H]2C(=O)N3[C@@H]2SC(C)(C)[C@@H]3C(=O)O)c2ccccc2)C(=O)C1=O`, the outcome in the assay with Acinetobacter baumannii [1] and in the assay with Acinetobacter baumannii [2] was inactive.

In the case of `C[C@@H](O)[C@H]1C(=O)N2C(C(=O)O)=C(SCCNC=N)C[C@H]12` [IMIPENEM ANHYDROUS], the minimal inhibitory concentration (MIC) in the assay on Acinetobacter baumannii [3] stood at 0.5 µg/mL (≈ 1.67 µM); against Acinetobacter baumannii [4] it was 2 µg/mL (≈ 6.68 µM); against Acinetobacter baumannii [5], 64 µg/mL (≈ 214 µM); in the assay on Acinetobacter baumannii [6] it was 4 µg/mL (≈ 13.4 µM); against Acinetobacter baumannii [7] it was 32 µg/mL (≈ 107 µM).
